Reference: US9617289B2, “RSV antiviral compounds” (JANSSEN R&D IRELAND, priority 2012, dated 2017)
Where two headings read alike, the source gives them in different places.

Tests used:
[1] = tested on: rgRSV224 virus; assay: Antiviral activity: inhibition of rgRSV224 (GFP-expressing RSV) replication in HeLa cells; type: cell-based, respiratory syncytial virus; conditions: for EC50: human respiratory syncytial virus, HeLa, 72 h; for pEC50: rgRSV224 (MOI=0.02) in HeLa cells, GFP expression three days post-virus exposure
Procedure, shortened: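 HeLa cells infected with GFP-expressing rgRSV224 at MOI 0.02 alongside 4-fold compound dilutions in duplicate (0.5% DMSO). Incubated 3 days at 37 °C; EC50 taken as 50% inhibition of GFP expression by laser microscopy. CC50 measured in parallel uninfected cells by ATP content after 3 days; SI = CC50/EC50.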

[2] = read-out: RSV-wt_pEC50, rgRSV224 (MOI=0.02) in HeLa cells, GFP expression three days post-virus exposure
[3] = read-out: pEC50, rgRSV224 (MOI=0.02) in HeLa cells, GFP expression three days post-virus exposure (converted)

## CC(C)NC(=O)N[C@H]1C[C@@]2(C1)C(=O)N(Cc1nc3cc(Cl)ccc3n1CCCC#N)c1ccccc12 [Compound 144, 1-((1r,3r)-1′-((5-chloro-1-(3-cyanopropyl)-1H-benzo[d]imidazol-2-yl)methyl)-2′-oxospiro[cyclobutane-1,3′-indolin]-3-yl)-3-isopropylurea]
[1]; [2]
  EC50: 0.229 nM
other
  melting point: 219.9 °C

## CC(=O)N1CC2(C1)C(=O)N(Cc1nc3cc(Cl)ccc3n1CCCS(C)(=O)=O)c1ccccc12 [Compound 72, 1-acetyl-1′-((5-chloro-1-(3-(methylsulfonyl)propyl)-1H-benzo[d]imidazol-2-yl)methyl)spiro[azetidine-3,3′-indolin]-2′-one]
[1]
  pEC50: 9.6
other
  melting point: 226.51 °C

## CC(C)(O)C(=O)N1CC2(C1)C(=O)N(Cc1cc3cc(Cl)ccc3n1CCCC#N)c1ccccc12 [Compound 73, 4-(5-chloro-2-((1-(2-hydroxy-2-methylpropanoyl)-2′-oxospiro[azetidine-3,3′-indolin]-1′-yl)methyl)-1H-indol-1-yl)butanenitrile]
[1]; [3]
  EC50: 0.501 nM
other
  melting point: 89.86 °C

## O=C1N(Cc2nc3cc(Cl)ccc3n2CCCC(F)(F)F)c2cc(F)ccc2C12CCOCC2 [Compound 71, 1-((5-chloro-1-(4,4,4-trifluorobutyl)-1H-benzo[d]imidazol-2-yl)methyl)-6-fluoro-2′,3′,5′,6′-tetrahydrospiro[indoline-3,4′-pyran]-2-one]
[1]; [3]
  EC50: 3.16 nM
other
  melting point: 172.7 °C

## N#CCCCn1c(CN2c3ccccc3[C@]3(C[C@@H](O)C3)C2=O)nc2cc(Cl)ccc21 [Compound 176, 4-(5-chloro-2-(((1r,3r)-3-hydroxy-2′-oxospiro[cyclobutane-1,3′-indolin]-1′-yl)methyl)-1H-benzo[d]imidazol-1-yl)butanenitrile]
[1]; [2]
  EC50: 0.363 nM
other
  melting point: 217.25 °C

## N#CCCCn1c(CN2C(=O)C3(CCN(C(=O)C(O)(C(F)(F)F)C(F)(F)F)CC3)c3ccncc32)nc2cc(Cl)ccc21 [Compound 181, 4-[5-Chloro-2-({2′-oxo-1-[3,3,3-trifluoro-2-hydroxy-2-(trifluoromethyl)propanoyl]spiro[piperidine-4,3′-pyrrolo[2,3-c]pyridin]-1′(2′H)-yl}methyl)-1H-benzimidazol-1-yl]butanenitrile]
[1]; [2]
  EC50: 0.251 nM
other
  melting point: 240.41 °C

## N#CCCCn1c(CN2C(=O)C3(CCN(C(=O)OC4COC4)CC3)c3ccncc32)nc2cc(Cl)ccc21 [Compound 82, oxetan-3-yl 1′-((5-chloro-1-(3-cyanopropyl)-1H-benzo[d]-imidazol-2-yl)methyl)-2′-oxo-1′,2′-dihydrospiro[piperidine-4,3′-pyrrolo[2,3-c]pyridine]-1-carboxylate]
[1]; [3]
  EC50: < 0.158 nM
other
  melting point: 203.41 °C

## CC(C)(O)C(=O)N1CC2(C1)C(=O)N(Cc1nc3cc(Cl)ccc3n1CCCCF)c1ccccc12 [Compound 183, 1′-{[5-Chloro-1-(4-fluorobutyl)-1H-benzimidazol-2-yl]methyl}-1-(2-hydroxy-2-methylpropanoyl)spiro[azetidine-3,3′-indol]-2′(1′H)-one]
[1]; [2]
  EC50: 0.0759 nM
other
  melting point: 219.71 °C

## CS(=O)(=O)N1CC2(C1)C(=O)N(Cc1nc3cc(Cl)ccc3n1CCCC#N)c1ccccc12 [Compound 94, 4-(5-Chloro-2-{[1-(methylsulfonyl)-2′-oxospiro[azetidine-3,3′-indol]-1′(2′H)-yl]methyl}-1H-benzimidazol-1-yl)-butanenitrile]
[1]; [2]
  EC50: 0.129 nM
other
  melting point: 214.11 °C

## CC(=O)N1CCC2(CC1)C(=O)N(Cc1cc3cc(Cl)ccc3n1CCCS(C)(=O)=O)c1cnccc12 [Compound 56, 1-acetyl-1′-({5-chloro-1-[3-(methylsulfonyl)propyl]-1H-indol-2-yl}methyl)spiro[piperidine-4,3′-pyrrolo[2,3-c]pyridin]-2′(1′H)-one]
[1]; [3]
  EC50: 0.316 nM
other
  melting point: 258.32 °C

## CC(=O)NS(=O)(=O)N1CC2(C1)C(=O)N(Cc1cc3cc(Cl)ccc3n1CCCC#N)c1ccccc12 [Compound 117, N-[(1′-{[5-Chloro-1-(3-cyanopropyl)-1H-indol-2-yl]methyl}-2′-oxo-1′,2′-dihydro-1H-spiro[azetidine-3,3′-indol]-1-yl)sulfonyl]acetamide]
[1]; [2]
  EC50: 10 nM
other
  melting point: 182.85 °C

## CS(=O)(=O)CCCn1c(CN2C(=O)C3(CN(CC(F)(F)F)C3)c3ccccc32)nc2cc(Cl)ccc21 [Compound 9, 1′-[[5-chloro-1-(3-methylsulfonylpropyl)benzimidazol-2-yl]methyl]-1-(2,2,2-trifluoroethyl)spiro[azetidine-3,3′-indoline]-2′-one]
[1]; [3]
  EC50: 0.398 nM
other
  melting point: 200.68 °C

## CS(=O)(=O)CCCn1c(CN2C(=O)C3(CN(S(=O)(=O)C4CC4)C3)c3ccccc32)nc2cc(Cl)ccc21 [Compound 29, 1′-({5-chloro-1-[3-(methylsulfonyl)propyl]-1H-benzimidazol-2-yl}methyl)-1-(cyclopropylsulfonyl)-spiro[azetidine-3,3′-indol]-2′(1′H)-one]
[1]; [3]
  EC50: < 0.158 nM
other
  melting point: 191.15 °C

## O=C1N(Cc2nc3nc(Cl)ccc3n2CCCC(F)(F)F)c2cnccc2C12CCOCC2 [Compound 75, 1′-((5-chloro-1-(4,4,4-trifluorobutyl)-1H-imidazo[4,5-b]-pyridin-2-yl)methyl)-2,3,5,6-tetrahydrospiro[pyran-4,3′-pyrrolo[2,3-c]pyridin]-2′(1′H)-one]
[1]
  pEC50: 8.3
other
  melting point: 188.67 °C

## CS(=O)(=O)CCCn1c(CN2C(=O)C3(CCN(C(=O)C4CC4)CC3)c3ccncc32)nc2cc(Cl)ccc21 [Compound 90, 1′-({5-Chloro-1-[3-(methylsulfonyl)propyl]-1H-benzimidazol-2-yl}methyl)-1-(cyclopropylcarbonyl)spiro[piperidine-4,3′-pyrrolo[2,3-c]pyridin]-2′(1′H)-one]
[1]; [2]
  EC50: 0.0468 nM
other
  melting point: 208.64 °C

## CC(=O)N1CCC2(CC1)C(=O)N(Cc1nc3cc(Cl)ccc3n1CCCC#N)c1cnccc12 [Compound 83, 4-(2-((1-acetyl-2′-oxospiro[piperidine-4,3′-pyrrolo[2,3-c]-pyridin]-1′(2′H)-yl)methyl)-5-chloro-1H-benzo[d]imidazol-1-yl)butanenitrile]
[1]; [3]
  EC50: < 0.158 nM
other
  melting point: 223.53 °C

## CC(=O)N[C@H]1C[C@@]2(C1)C(=O)N(Cc1nc3cc(Cl)ccc3n1CCCC#N)c1ccccc12 [Compound 146, N-((1r,3r)-1′-((5-chloro-1-(3-cyanopropyl)-1H-benzo[d]imidazol-2-yl)methyl)-2′-oxospiro[cyclobutane-1,3′-indolin]-3-yl)acetamide]
[1]; [2]
  EC50: 0.501 nM
other
  melting point: 194.77 °C

## CC(=O)N1CC2(C1)C(=O)N(Cc1nc3cc(Cl)ccc3n1CCCS(C)(=O)=O)c1ccccc12 [Compound 30, 1-acetyl-1′-({5-chloro-1-[3-(methylsulfonyl)propyl]-1H-benzimidazol-2-yl}methyl)spiro[azetidine-3,3′-indol]-2′(1′H)-one]
[1]; [3]
  EC50: 0.251 nM
other
  melting point: 221.24 °C

## CC(C)(O)C(=O)N1CCC2(CC1)C(=O)N(Cc1nc3cc(Cl)ccc3n1CCCCO)c1cnccc12 [Compound 164, 1′-{[5-Chloro-1-(4-hydroxybutyl)-1H-benzimidazol-2-yl]methyl}-1-(2-hydroxy-2-methylpropanoyl)spiro[piperidine-4,3′-pyrrolo[2,3-c]pyridin]-2′(1′H)-one]
[1]; [2]
  EC50: 0.126 nM
other
  melting point: 191.87 °C

## N#CCCCn1c(CN2C(=O)C3(CCN(S(=O)(=O)C4CC4)CC3)c3ccncc32)cc2cc(Cl)ccc21 [Compound 81, 4-(5-chloro-2-((1-(cyclopropylsulfonyl)-2′-oxospiro-[piperidine-4,3′-pyrrolo[2,3-c]pyridin]-1′(2′H)-yl)methyl)-1H-indol-1-yl)butanenitrile]
[1]; [3]
  EC50: < 0.158 nM
other
  melting point: 93.04 °C

## COC(=O)N1CCC2(CC1)C(=O)N(Cc1cc3cc(Cl)ccc3n1CCCS(C)(=O)=O)c1cnccc12 [Compound 55]
[1]; [3]
  EC50: 0.0501 nM
other
  melting point: 234.28 °C

## COC(=O)N1CCC2(CC1)C(=O)N(Cc1nc3cc(Cl)ccc3n1CCCCF)c1cnccc12 [Compound 178, Methyl 1′-{[5-chloro-1-(4-fluorobutyl)-1H-benzimidazol-2-yl]methyl}-2′-oxo-1′,2′-dihydro-1H-spiro[piperidine-4,3′-pyrrolo[2,3-c]pyridine]-1-carboxylate]
[1]; [2]
  EC50: 0.0288 nM
other
  melting point: 182.68 °C

## CS(=O)(=O)CCCn1c(CN2C(=O)C3(CCOCC3)c3ccc(F)cc32)nc2cc(Cl)ccc21 [Compound 10, 1-((5-chloro-1-(3-(methylsulfonyl)propyl)-1H-benzo[d]-imidazol-2-yl)methyl)-6-fluoro-2′,3′,5′,6′-tetrahydro-spiro[indoline-3,4′-pyran]-2-one]
[1]; [3]
  EC50: 2 nM
other
  melting point: 207.14 °C

## CC(C)OC(=O)N1CCC2(CC1)C(=O)N(Cc1nc3cc(Cl)ccc3n1CCCCF)c1cnccc12 [Compound 179, 1-Methylethyl 1′-{[5-chloro-1-(4-fluorobutyl)-1H-benzimidazol-2-yl]methyl}-2′-oxo-1′,2′-dihydro-1H-spiro[piperidine-4,3′-pyrrool[2,3-c]pyridine]-1-carboxylate]
[1]; [2]
  EC50: 0.0437 nM
other
  melting point: 198.92 °C

## CS(=O)(=O)CCCn1c(CN2C(=O)C3(CC(O)C3)c3ccccc32)nc2cc(Cl)ccc21 [Compound 12, (3R)-1′-({5-chloro-1-[3-(methylsulfonyl)propyl]-1H-benzimidazol-2-yl}methyl)-3-hydroxyspiro[cyclobutane-1,3′-indol]-2′(1′H)-one]
[1]
  pEC50: 9.3
other
  melting point: 209.84 °C
